The compounds below were run against T1, hROMK (hKir1.1) (Homo sapiens, UniProt P48048) (assay: Thallium Flux Assay). Conditions: HEK293 cells stably expressing hROMK (hKir1.1), FLIPR-Tetra; read-out: Thallium Flux IC50.
T1 construct: expressed in transfected cells
T1 sequence (P48048 1-391): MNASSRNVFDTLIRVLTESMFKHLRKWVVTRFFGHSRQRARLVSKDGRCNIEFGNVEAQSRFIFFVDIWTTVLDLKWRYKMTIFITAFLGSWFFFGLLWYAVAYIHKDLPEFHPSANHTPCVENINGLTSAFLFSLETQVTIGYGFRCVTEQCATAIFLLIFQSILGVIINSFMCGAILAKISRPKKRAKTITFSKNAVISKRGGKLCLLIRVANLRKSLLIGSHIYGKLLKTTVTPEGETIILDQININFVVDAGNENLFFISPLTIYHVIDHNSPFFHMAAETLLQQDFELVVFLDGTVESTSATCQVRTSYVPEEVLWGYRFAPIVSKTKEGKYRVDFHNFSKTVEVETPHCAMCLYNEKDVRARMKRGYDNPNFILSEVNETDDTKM
Format: cell-based
Method in brief: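 HEK293 cells stably expressing hROMK, loaded with FluxOR dye 90 min at ambient temperature, then compound 30 min with 0.3 mM ouabain in probenecid buffer pH 7.4.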

| SMILES | IC50 [nM] |
| --- | --- |
| Cc1nc(-n2cnnn2)ncc1CC(=O)N1CCN2C[C@@H](c3ccc(F)c(C#N)c3Cl)OC[C@H]2C1 [Example 138, 2-chloro-6-fluoro-3-[(3R,9aR)-8-{[4-methyl-2-(1H-tetrazol-1-vl)pvrimidin-5-yl]acetyl}octahydropyrazino[2,1-c][1,4]oxazin-3-yl]benzonitrile] | 140 |
| COc1c([C@H]2CN3CCN(C(=O)Cc4cnc(-n5cnnn5)nc4)C[C@H]3CO2)ccc(F)c1C#N [Example 139, 6-fluoro-2-methoxy-3-[(3S,9aS)-8-{[2-(1H-tetrazol-1-vl)pvrimidin-5-yl]acetyl}octahydropyrazino[2,1-c][1,4]oxazin-3-yl]benzonitrile] | 160 |
| COc1c([C@@H]2CN3CCN(C(=O)Cc4cnc(-n5cnnn5)nc4)C[C@H]3CO2)ccc(F)c1C#N [Example 140, 6-fluoro-2-methoxy-3-[(3R,9aS)-8-{[2-(1H-tetrazol-1-vl)pvrimidin-5-yl]acetyl}octahydropyrazino[2,1-c][1,4]oxazin-3-yl]benzonitrile] | 120 |
| N#Cc1cc([C@@H]2CN3CCN(C(=O)Cc4cnc(-n5cnnn5)nc4)C[C@@H]3CO2)ccc1F [Example 141, 2-fluoro-5-[(3R,9aR)-8-{[2-(1H-tetrazol-1-yl)pyrimidin-5-yl]acetyl}octahydropyrazino[2,1-c][1,4]oxazin-3-yl]benzonitrile] | 300 |
| COc1cc([C@H]2CN3CCN(C(=O)Cc4cnc(-n5cnnn5)nc4)C[C@H]3CO2)ccc1C#N [Example 143, 2-methoxy-4-[(3S,9aS)-8-{[2-(1H-tetrazol-1-yl)pyrimidin-5-yl]acetyl}octahydropyrazino[2,1-c][1,4]oxazin-3-yl]benzonitrile] | 190 |
| COc1cc([C@@H]2CN3CCN(C(=O)Cc4cnc(-n5cnnn5)nc4)C[C@H]3CO2)ccc1C#N [Example 144, 2-methoxy-4-[(3R,9aS)-8-{[2-(1H-tetrazol-1-yl)pyrimidin-5-yl]acetyl}octahydropyrazino[2,1-c][1,4]oxazin-3-yl]benzonitrile] | 390 |
| Cc1c([C@@H]2CN3CCN(C(=O)Cc4cnc(-n5cnnn5)c(F)c4)C[C@@H]3CO2)ccc(F)c1C#N [Example 146, 6-fluoro-3-[(3R,9aR)-8-{[5-fluoro-6-(1H-tetrazol-1-yl)pyridin-3-yl]acetyl}octahydropyrazino[2,1-c][1,4]oxazin-3-yl]-2-methylbenzonitrile] | 90 |
| Cc1c([C@H]2CN3CCN(C(=O)Cc4cnc(-n5cnnn5)c(F)c4)C[C@@H]3CO2)ccc(F)c1C#N [Example 147, 6-fluoro-3-[(3S,9aR)-8-{[5-fluoro-6-(1H-tetrazol-1-yl)pyridin-3-yl]acetyl}octahydropyrazino[2,1-c][1,4]oxazin-3-yl]-2-methylbenzonitrile] | 140 |
| Cc1c([C@@H]2CN3CCN(C(=O)Cc4cnc(-n5cnnn5)c(F)c4)C[C@H]3CO2)ccc(F)c1C#N [Example 148, 6-fluoro-3-[(3R,9aS)-8-{[5-fluoro-6-(1H-tetrazol-1-yl)pyridin-3-yl]acetyl}octahydropyrazino[2,1-c][1,4]oxazin-3-yl]-2-methylbenzonitrile] | 80 |
| Cc1c([C@H]2CN3CCN(C(=O)Cc4cnc(-n5cnnn5)c(F)c4)C[C@H]3CO2)ccc(F)c1C#N [Example 149, 6-fluoro-3-[(3S,9aS)-8-{[5-fluoro-6-(1H-tetrazol-1-yl)pyridin-3-yl]acetyl}octahydropyrazino[2,1-c][1,4]oxazin-3-yl]-2-methylbenzonitrile] | 130 |
| Cc1nc(-n2cnnn2)nc(C)c1CC(=O)N1CCN2C[C@H](c3ccc(F)c(C#N)c3C)OC[C@@H]2C1 [Example 150, 3-[(3S,9aS)-8-{[4,6-dimethyl-2-(1H-tetrazol-1-yl)pyrimidin-5-yl]acetyl}octahydropyrazino[2,1-c][1,4]oxazin-3-yl]-6-fluoro-2-methylbenzonitrile] | 290 |
| Cc1nc(-n2cnnn2)nc(C)c1CC(=O)N1CCN2C[C@@H](c3ccc(F)c(C#N)c3C)OC[C@H]2C1 [Example 152, 3-[(3R,9aR)-8-{[4,6-dimethyl-2-(1H-tetrazol-1-yl)pyrimidin-5-yl]acetyl}octahydropyrazino[2,1-c][1,4]oxazin-3-yl]-6-fluoro-2-methylbenzonitrile] | 200 |
| Cc1c([C@H]2CN3CCN(C(=O)Cc4ccc(-n5cnnn5)nn4)C[C@H]3CO2)ccc(F)c1C#N [Example 155, 6-fluoro-2-methyl-3-[(3S,9aS)-8-{[6-(1H-tetrazol-1-yl)pyridazin-3-yl]acetyl}octahydropyrazino [2,1-c][1,4]oxazin-3-yl]benzonitrile] | 300 |
| Cc1c([C@H]2CN3CCN(C(=O)Cc4cnc(-n5cnnn5)nc4C(F)(F)F)C[C@H]3CO2)ccc(F)c1C#N [Example 158, 6-fluoro-2-methyl-3-[(3S,9aS)-8-{[2-(1H-tetrazol-1-yl)-4-(trifluoromethyl)pyrimidin-5-yl]acetyl}octahydropyrazino[2,1-c][1,4]oxazin-3-yl]benzonitrile] | 200 |
| Cc1c([C@@H]2CN3CCN(C(=O)Cc4cnc(-n5cnnn5)nc4C(F)(F)F)C[C@H]3CO2)ccc(F)c1C#N [Example 159, 6-fluoro-2-methyl-3-[(3R,9aS)-8-{[2-(1H-tetrazol-1-yl)-4-(trifluoromethyl)pyrimidin-5-yl]acetyl}octahydropyrazino[2,1-c][1,4]oxazin-3-yl]benzonitrile] | 260 |
| Cc1c([C@H]2CN3CCN(C(=O)Cc4cccc(-n5cnnn5)n4)C[C@@H]3CO2)ccc(F)c1C#N [Example 160, 6-fluoro-2-methyl-3-[(3S,9aR)-8-{[6-(1H-tetrazol-1-yl)pyridin-2-yl]acetyl}octahydropyrazino[2,1-c][1,4]oxazin-3-yl]benzonitrile] | 390 |
| Cc1c([C@@H]2CN3CCN(C(=O)Cc4cccc(-n5cnnn5)n4)C[C@@H]3CO2)ccc(F)c1C#N [Example 161, 6-fluoro-2-methyl-3-[(3R,9aR)-8-{[6-(1H-tetrazol-1-yl)pyridin-2-yl]acetyl}octahydropyrazino[2,1-c][1,4]oxazin-3-yl]benzonitrile] | 350 |
| Cc1c([C@@H]2CN3CCN(C(=O)Cc4ccc(-n5cnnn5)nc4)C[C@H]3CS2)ccc2c1COC2=O [Example 166, 4-methyl-5-[(3R,9aS)-8-{[6-(1H-tetrazol-1-yl)pyridin-3-yl]acetyl}octahydropyrazino[2,1-c][1,4]thiazin-3-yl]-2-benzofuran-1(3H)-one] | 380 |
| Cc1c([C@H]2CN3CCN(C(=O)Cc4ccc(-n5cnnn5)nc4)C[C@H]3CS2)ccc2c1COC2=O [Example 167, 4-methyl-5-[(3S,9aS)-8-{[6-(1H-tetrazol-1-yl)pyridin-3-yl]acetyl}octahydropyrazino[2,1-c][1,4]thiazin-3-yl]-2-benzofuran-1(3H)-one] | 420 |

Same assay, conditions: Thallium Flux IC50

| SMILES | IC50 [nM] |
| --- | --- |
| N#Cc1c(F)ccc([C@H]2CN3CCN(C(=O)Cc4cnc(-n5cnnn5)nc4)C[C@H]3CO2)c1Cl [Example 137, 2-chloro-6-fluoro-3-[(3S,9aS)-8-{[2-(1H-tetrazol-1-yl)pyrimidin-5-yl]acetyl}octahydropyrazino[2,1-c][1,4]oxazin-3-yl]benzonitrile] | 60 |
| O=C1OCCc2cc([C@@H]3CN4CCN(C(=O)Cc5cnc(-n6cnnn6)nc5)C[C@H]4CO3)ccc21 [Example 145, 6-[(3R,9aS)-8-{[2-(1H-tetrazol-1-yl)pyrimidin-5-yl]acetyl}octahydropyrazino[2,1-c][1,4]oxazin-3-yl]-3,4-dihydro-1H-isochromen-1-one] | 240 |
| Cc1nc(-n2cnnn2)nc(C)c1CC(=O)N1CCN2C[C@H](c3ccc(F)c(C#N)c3C)OC[C@H]2C1 [Example 151, 3-[(3S,9aR)-8-{[4,6-dimethyl-2-(1H-tetrazol-1-yl)pyrimidin-5-yl]acetyl}octahydropyrazino[2,1-c][1,4]oxazin-3-yl]-6-fluoro-2-methylbenzonitrile] | 300 |
| Cc1c([C@H]2CN3CCN(C(=O)Cc4ncc(-n5cnnn5)cc4Cl)C[C@H]3CO2)ccc(F)c1C#N [Example 153, 3-[(3S,9aS)-8-{[3-chloro-5-(1H-tetrazol-1-yl)pyridin-2-yl]acetyl}octahydropyrazino[2,1-c][1,4]oxazin-3-yl]-6-fluoro-2-methylbenzonitrile] | 170 |
| Cc1c([C@@H]2CN3CCN(C(=O)Cc4ncc(-n5cnnn5)cc4Cl)C[C@@H]3CO2)ccc(F)c1C#N [Example 154, 3-[(3R,9aR)-8-{[3-chloro-5-(1H-tetrazol-1-yl)pyridin-2-yl]acetyl}octahydropyrazino[2,1-c][1,4]oxazin-3-yl]-6-fluoro-2-methylbenzonitrile] | 200 |
| Cc1c([C@@H]2CN3CCN(C(=O)Cc4ccc(-n5cnnn5)nn4)C[C@@H]3CO2)ccc(F)c1C#N [Example 156, 6-fluoro-2-methyl-3-[(3R,9aR)-8-{[6-(1H-tetrazol-1-yl)pyridazin-3-yl]acetyl}octahydropyrazino [2,1-c][1,4]oxazin-3-yl]benzonitrile] | 210 |
| Cc1c([C@@H]2CN3CCN(C(=O)Cc4ccc(-n5nnnc5C)cn4)C[C@H]3CO2)ccc(F)c1C#N [Example 162, 6-fluoro-2-methyl-3-[(3R,9aS)-8-{[5-(5-methyl-1H-tetrazol-1-vl)pvridin-2-yl]acetyl}octahydropyrazino[2,1-c][1,4]oxazin-3-yl]benzonitrile] | 170 |
